Data as given in US20240116985A1, “STAPLED PEPTIDES AND METHODS THEREOF” (priority 2020, published 2024).
Read-outs that look alike come from different tables or passages of the source.

What was measured:
[1] = biological target: T1, full-length beta-Catenin (Uniprot ID P35222) (Homo sapiens, UniProt P35222); assay: Fluorescence polarization IC50 (beta-catenin / 5FAM-TCF4 10-53 competition); assay type: binding; settings: fluorescence polarization; read-out: beta-Catenin FP IC50
T1 construct: 10 nM full-length beta-Catenin (Uniprot ID P35222)
T1 sequence (P35222 1-781): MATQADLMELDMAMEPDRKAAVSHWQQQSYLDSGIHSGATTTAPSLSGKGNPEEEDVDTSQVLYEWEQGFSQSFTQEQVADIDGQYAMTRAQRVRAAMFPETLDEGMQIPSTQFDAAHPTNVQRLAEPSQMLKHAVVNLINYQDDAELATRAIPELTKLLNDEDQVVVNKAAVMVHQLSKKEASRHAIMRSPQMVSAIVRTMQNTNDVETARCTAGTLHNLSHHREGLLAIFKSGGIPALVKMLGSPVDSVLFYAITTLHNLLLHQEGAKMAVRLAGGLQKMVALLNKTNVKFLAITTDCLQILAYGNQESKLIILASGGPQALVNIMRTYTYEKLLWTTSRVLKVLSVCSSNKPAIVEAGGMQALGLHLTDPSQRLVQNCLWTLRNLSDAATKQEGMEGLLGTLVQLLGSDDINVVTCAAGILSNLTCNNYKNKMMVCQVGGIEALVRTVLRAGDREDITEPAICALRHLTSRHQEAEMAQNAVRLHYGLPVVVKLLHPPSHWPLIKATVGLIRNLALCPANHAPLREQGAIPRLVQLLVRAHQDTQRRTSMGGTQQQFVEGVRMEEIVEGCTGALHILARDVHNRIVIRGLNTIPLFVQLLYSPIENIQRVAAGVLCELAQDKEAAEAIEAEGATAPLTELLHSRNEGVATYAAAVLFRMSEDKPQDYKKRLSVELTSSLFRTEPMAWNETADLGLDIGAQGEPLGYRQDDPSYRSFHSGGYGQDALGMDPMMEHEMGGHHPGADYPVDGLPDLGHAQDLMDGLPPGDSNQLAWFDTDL

[2] = biological target: T2, beta-catenin/TCF4 engagement (Homo sapiens, UniProt P35222); assay: Nano-BRET target engagement assay (B-cat-Halo & TCF4-Luc in HEK293 cells); assay type: cell-based; settings: read-out: NanoBRET Abs IC50
T2 construct: expressed in transfected cells; host or cells: HEK293
T2 sequence (P35222 1-781): T1 sequence (P35222 1-781)

Row | IC50 [1] | IC50 [2] | IC50 ([2]; absolute IC50) | SMILES
1 | 11 nM | 7900 nM |  | CC(=O)N1CCC[C@]12CC=CCCCC1(CCCC=CCCCOC(=O)N3CC[C@@](C(=O)N[C@@H](Cc4ccsc4)C(=O)N[C@@H](Cc4csc5ccccc45)C(=O)N[C@@H](CCC(N)=O)C(N)=O)(C3)NC(=O)[C@H](CCC(=O)NCc3ccccc3)NC(=O)[C@H](Cc3ccccc3)NC(=O)[C@H](C)NC(=O)[C@H](C)NC(=O)[C@H](CN(CC(=O)O)CC(F)(F)F)NC(=O)[C@H](CC(=O)O)NC1=O)NC(=O)[C@H](CC(C)(C)C)NC(=O)[C@H](CC(=O)O)NC2=O (stereo partly drawn) [I-1942, Ac-PL3-Asp-Npg-B5-Asp-TfeGA-Ala-Ala-Phe-[NHBn]GlnR-PyrS2-3Thi-BztA-Gln-NH2]
2 | 5 nM |  | 4000 nM | CC(=O)N1CCC[C@]12CC=CCCCC1(CCCC=CCCCOC(=O)N3CC[C@@](C(=O)N[C@@H](Cc4ccccc4C(F)(F)F)C(=O)N[C@@H](Cc4csc5ccccc45)C(=O)N[C@@H](CO)C(N)=O)(C3)NC(=O)[C@H](CC(C)C)NC(=O)[C@H](Cc3ccccc3)NC(=O)[C@H](C)NC(=O)[C@H](C)NC(=O)[C@H](Cn3cc(CC(=O)O)nn3)NC(=O)[C@H](CC(=O)O)NC1=O)NC(=O)[C@H](CC(C)(C)C)NC(=O)[C@H](CC(=O)O)NC2=O (stereo partly drawn) [I-2373, Ac-PL3-Asp-Npg-B5-Asp-[CH2CO2H]TriAzDap-Ala-Ala-Phe-Leu-PyrS2-2F3MeF-BztA-Ser-NH2]
3 | 48 nM |  | 12700 nM | CC(=O)N1CCC[C@]12CC=CCCCC1(CCCC=CCCCOC(=O)N3CC[C@@](C(=O)N[C@@H](Cc4ccccc4C(F)(F)F)C(=O)N[C@@H](Cc4csc5ccccc45)C(=O)N[C@@H](CCC(N)=O)C(N)=O)(C3)NC(=O)[C@H](Cc3ccccc3)NC(=O)[C@H](Cc3ccccc3)NC(=O)[C@H](C)NC(=O)[C@H](C)NC(=O)[C@H](Cc3ccccc3C(=O)O)NC(=O)[C@H](CC(=O)O)NC1=O)NC(=O)[C@H](CC(C)(C)C)NC(=O)[C@H](CC(=O)O)NC2=O (stereo partly drawn) [I-1655, Ac-PL3-Asp-Npg-B5-Asp-2COOHF-Ala-Ala-Phe-Phe-PyrS2-2F3MeF-BztA-Gln-NH2]
4 | 116 nM | > 20000 nM |  | CC(=O)N1CCC[C@]12CC=CCC1(CC=CCCCCCOC(=O)N3CC[C@](C(=O)N[C@@H](Cc4ccsc4)C(=O)N[C@@H](Cc4csc5ccccc45)C(=O)N[C@@H](CCC(N)=O)C(N)=O)(C3)NC(=O)[C@H](CC(C)C)NC(=O)[C@H](Cc3ccccc3)NC(=O)[C@H](C)NC(=O)[C@H](C)NC(=O)[C@H](CC(=O)O)NC(=O)[C@H](CC(=O)O)NC1=O)NC(=O)[C@H](CC(C)(C)C)NC(=O)[C@H](CC(=O)O)NC2=O (single isomer, unassigned) [I-2159, Ac-PL3-Asp-Npg-B3-Asp-Asp-Ala-Ala-Phe-Leu-PyrS4-3Thi-BztA-Gln-NH2]
5 | 2680 nM |  | 12900 nM | CC(=O)N1CCC[C@]12CC=CCCCC1(CCCC=CCCCOC(=O)N3CC[C@@](C(=O)N[C@@H](Cc4ccsc4)C(=O)N[C@@H](Cc4csc5ccccc45)C(=O)N[C@@H](CC(N)=O)C(=O)N[C@@H](C)C(=O)N[C@@H](CC(C)C)C(=O)N[C@@H](C)C(=O)N[C@@H](CC(C)C)C(=O)N[C@@H](C)C(=O)N[C@@H](CC(C)C)C(=O)N[C@@H](C)C(N)=O)(C3)NC(=O)[C@H](CC(C)C)NC(=O)[C@H](Cc3ccccc3)NC(=O)[C@H](C)NC(=O)[C@H](C)NC(=O)[C@H](Cc3cccc(C(=O)O)c3)NC(=O)[C@H](CC(=O)O)NC1=O)NC(=O)[C@H](CC(C)(C)C)NC(=O)[C@H](CC(=O)O)NC2=O (some centres unmarked) [I-2284]
6 | 10 nM | 3300 nM |  | CC(=O)N1CCC[C@]12CC=CCCCC1(CCCC=CCCCOC(=O)N3CC[C@@](C(=O)N[C@@H](Cc4ccccc4Cl)C(=O)N[C@@H](Cc4csc5ccccc45)C(=O)N[C@@H](CCC(N)=O)C(N)=O)(C3)NC(=O)[C@H](CC(C)C)NC(=O)[C@H](Cc3ccccc3)NC(=O)[C@H](C)NC(=O)[C@H](C)NC(=O)[C@H](Cc3ccc(F)c(C(=O)O)c3)NC(=O)[C@H](CC(=O)O)NC1=O)NC(=O)[C@H](CC(C)(C)C)NC(=O)[C@H](CC(=O)O)NC2=O (stereo partly drawn) [I-2204, Ac-PL3-Asp-Npg-B5-Asp-4F3COOHF-Ala-Ala-Phe-Leu-PyrS2-2C1F-BztA-Gln-NH2]
7 | 86 nM | > 20000 nM |  | CC(=O)N1CCC[C@]12CC=CCCCC1(CCCC=CCCCOC(=O)N3CC[C@@](C(=O)N[C@@H](Cc4ccsc4)C(=O)N[C@@H](Cc4csc5ccccc45)C(=O)N[C@H](C)C(N)=O)(C3)NC(=O)[C@H](CC(C)C)NC(=O)[C@H](Cc3ccccc3)NC(=O)[C@@H](C)NC(=O)[C@H](C)NC(=O)[C@H](Cc3cccc(C(=O)O)c3)NC(=O)[C@H](CC(=O)O)NC1=O)NC(=O)[C@H](CC(C)(C)C)NC(=O)[C@H](CC(=O)O)NC2=O (stereo partly drawn) [I-2100, Ac-PL3-Asp-Npg-B5-Asp-3COOHF-Ala-dAla-Phe-Leu-PyrS2-3Thi-BztA-dAla-NH2]
8 | 19 nM |  | 14400 nM | CC(=O)N1CCC[C@]12CC=CCCCC1(CCCC=CCCCOC(=O)N3CC[C@@](C(=O)N[C@@H](Cc4ccsc4)C(=O)N[C@@H](Cc4csc5ccccc45)C(=O)N[C@@H](CCC(N)=O)C(N)=O)(C3)NC(=O)[C@H]([C@@H](C)O)NC(=O)[C@H](Cc3ccccc3)NC(=O)[C@H](C)NC(=O)[C@H](C)NC(=O)[C@H](Cc3cccc(C(=O)O)c3)NC(=O)[C@H](CC(N)=O)NC1=O)NC(=O)[C@H](CC(C)(C)C)NC(=O)[C@H](CC(=O)O)NC2=O (stereo partly drawn) [I-2336, Ac-PL3-Asp-Npg-B5-Asn-3COOHF-Ala-Ala-Phe-Thr-PyrS2-3Thi-BztA-Gln-NH2]
9 | 164 nM |  | > 20000 nM | CC(=O)N1CCC[C@]12CC=CCCCC1(CCCC=CCCCOC(=O)N3CC[C@@](C(=O)N[C@@H](Cc4ccccc4C(F)(F)F)C(=O)N[C@H](C(=O)N[C@@H](C)C(N)=O)[C@@H](C)c4ccc5ccccc5c4)(C3)NC(=O)[C@H](CC(C)C)NC(=O)[C@H](Cc3ccccc3)NC(=O)[C@H](C)NC(=O)[C@H](CCC(N)=O)NC(=O)[C@H](Cc3cccc(C(=O)O)c3)NC(=O)[C@H](CC(=O)O)NC1=O)NC(=O)[C@H](CC(C)(C)C)NC(=O)[C@H](CC(=O)O)NC2=O (stereo partly drawn) [I-2465, Ac-PL3-Asp-Npg-B5-Asp-3COOHF-Gln-Ala-Phe-Leu-PyrS2-2F3MeF-SbMe2NapA-Ala-NH2]
10 | 32 nM | 7800 nM |  | CC(=O)N1CCC[C@]12CC=CCCCC1(CCCC=CCCCOC(=O)N3CC[C@@](C(=O)N[C@@H](Cc4ccccc4Cl)C(=O)N[C@@H](Cc4csc5ccccc45)C(=O)N[C@@H](C)C(N)=O)(C3)NC(=O)[C@H](C)NC(=O)[C@H](Cc3ccccc3)NC(=O)[C@H](C)NC(=O)[C@H](C)NC(=O)[C@H](Cc3cccc(C(=O)O)c3)NC(=O)[C@H](CC(=O)O)NC1=O)NC(=O)[C@H](CC(C)(C)C)NC(=O)[C@H](CC(=O)O)NC2=O (stereo partly drawn) [I-2023, Ac-PL3-Asp-Npg-B5-Asp-3COOHF-Ala-Ala-Phe-Ala-PyrS2-2C1F-BztA-Ala-NH2]
11 | 158 nM |  | 21600 nM | CC(=O)N1CCC[C@]12CC=CCCCC1(CCCC=CCCCOC(=O)N3CC[C@@](C(=O)N[C@@H](Cc4ccsc4)C(=O)N[C@@H](Cc4ccc(Cl)c(Cl)c4)C(=O)N[C@@H](CCC(N)=O)C(N)=O)(C3)NC(=O)[C@H](CC(N)=O)NC(=O)[C@H](Cc3ccccc3)NC(=O)[C@H](C)NC(=O)C(C)(C)NC(=O)[C@H]([C@@H](C)O)NC(=O)[C@H](CC(N)=O)NC1=O)NC(=O)[C@H](CC(C)(C)C)NC(=O)[C@H](CC(=O)O)NC2=O (stereo partly drawn) [I-2417, Ac-PL3-Asp-Npg-B5-Asn-Thr-Aib-Ala-Phe-Asn-PyrS2-3Thi-34C1F-Gln-NH2]
12 | 10 nM |  | 4600 nM | CC(=O)N1CCC[C@]12CC=CCCCC1(CCCC=CCCCOC(=O)N3CC[C@@](C(=O)N[C@@H](Cc4ccccc4Cl)C(=O)N[C@@H](Cc4csc5ccccc45)C(=O)N[C@@H](CCC(N)=O)C(N)=O)(C3)NC(=O)[C@H]([C@@H](C)O)NC(=O)[C@H](Cc3ccccc3)NC(=O)[C@H](C)NC(=O)C(C)(C)NC(=O)[C@H](CN(CC(=O)O)CC(F)(F)F)NC(=O)[C@H](CC(=O)O)NC1=O)NC(=O)[C@H](CC(C)(C)C)NC(=O)[C@H](CC(=O)O)NC2=O (stereo partly drawn) [I-1693, Ac-PL3-Asp-Npg-B5-Asp-TfeGA-Aib-Ala-Phe-Thr-PyrS2-2C1F-BztA-Gln-NH2]
13 | 14 nM |  | 9500 nM | CC(=O)N1CCC[C@]12CC=CCCCC1(CCCC=CCCCOC(=O)N3CC[C@@](C(=O)N[C@@H](Cc4ccccc4C(F)(F)F)C(=O)N[C@@H](Cc4csc5ccccc45)C(=O)N[C@@H](C)C(N)=O)(C3)NC(=O)[C@H](CC(C)C)NC(=O)[C@H](Cc3ccccc3)NC(=O)[C@H](C)NC(=O)[C@H](CCC(N)=O)NC(=O)[C@H](Cn3cc(C(C)(C)C(=O)O)nn3)NC(=O)[C@H](CC(=O)O)NC1=O)NC(=O)[C@H](CC(C)(C)C)NC(=O)[C@H](CC(=O)O)NC2=O (stereo partly drawn) [I-2369, Ac-PL3-Asp-Npg-B5-Asp-[CMe2CO2H]TriAzDap-Gln-Ala-Phe-Leu-PyrS2-2F3MeF-BztA-Ala-NH2]
